This experiment has as its target PI3Kδ (Homo sapiens (Human), UniProt O00329). It counts as biochemical. To be noted: PI3Kδ Alphascreen assay.

What is called Ki is the equilibrium dissociation constant of an inhibitor or competing ligand from its target.

Chain of PI3Kδ (O00329 whole entry): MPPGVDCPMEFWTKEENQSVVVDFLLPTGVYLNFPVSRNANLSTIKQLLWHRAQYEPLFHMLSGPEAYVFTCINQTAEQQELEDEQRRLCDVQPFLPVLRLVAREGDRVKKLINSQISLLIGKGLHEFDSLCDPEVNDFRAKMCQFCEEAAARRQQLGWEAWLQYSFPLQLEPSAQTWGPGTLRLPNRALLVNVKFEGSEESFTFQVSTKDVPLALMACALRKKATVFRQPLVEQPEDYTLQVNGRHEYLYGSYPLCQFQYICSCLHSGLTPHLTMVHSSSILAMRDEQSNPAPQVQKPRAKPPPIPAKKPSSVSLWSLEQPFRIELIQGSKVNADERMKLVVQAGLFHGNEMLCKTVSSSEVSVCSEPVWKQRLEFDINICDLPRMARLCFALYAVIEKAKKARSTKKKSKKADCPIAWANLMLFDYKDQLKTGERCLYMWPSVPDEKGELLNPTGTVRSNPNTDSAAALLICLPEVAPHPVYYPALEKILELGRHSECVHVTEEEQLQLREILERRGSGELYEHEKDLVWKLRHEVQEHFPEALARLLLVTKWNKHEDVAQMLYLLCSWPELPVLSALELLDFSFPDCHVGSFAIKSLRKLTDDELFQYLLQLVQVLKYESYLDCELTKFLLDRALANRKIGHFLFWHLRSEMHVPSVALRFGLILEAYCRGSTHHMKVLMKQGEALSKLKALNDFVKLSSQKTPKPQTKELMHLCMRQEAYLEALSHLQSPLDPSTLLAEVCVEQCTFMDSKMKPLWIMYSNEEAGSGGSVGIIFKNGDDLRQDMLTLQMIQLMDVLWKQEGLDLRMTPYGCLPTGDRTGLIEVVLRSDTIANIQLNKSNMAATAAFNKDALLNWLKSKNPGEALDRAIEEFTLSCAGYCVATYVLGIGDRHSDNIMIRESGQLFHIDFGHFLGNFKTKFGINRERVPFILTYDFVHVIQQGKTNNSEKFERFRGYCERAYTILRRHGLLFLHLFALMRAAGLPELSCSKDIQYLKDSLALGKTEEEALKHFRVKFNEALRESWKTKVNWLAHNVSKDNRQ
Chain of PI3Kδ (P27986 whole entry partner): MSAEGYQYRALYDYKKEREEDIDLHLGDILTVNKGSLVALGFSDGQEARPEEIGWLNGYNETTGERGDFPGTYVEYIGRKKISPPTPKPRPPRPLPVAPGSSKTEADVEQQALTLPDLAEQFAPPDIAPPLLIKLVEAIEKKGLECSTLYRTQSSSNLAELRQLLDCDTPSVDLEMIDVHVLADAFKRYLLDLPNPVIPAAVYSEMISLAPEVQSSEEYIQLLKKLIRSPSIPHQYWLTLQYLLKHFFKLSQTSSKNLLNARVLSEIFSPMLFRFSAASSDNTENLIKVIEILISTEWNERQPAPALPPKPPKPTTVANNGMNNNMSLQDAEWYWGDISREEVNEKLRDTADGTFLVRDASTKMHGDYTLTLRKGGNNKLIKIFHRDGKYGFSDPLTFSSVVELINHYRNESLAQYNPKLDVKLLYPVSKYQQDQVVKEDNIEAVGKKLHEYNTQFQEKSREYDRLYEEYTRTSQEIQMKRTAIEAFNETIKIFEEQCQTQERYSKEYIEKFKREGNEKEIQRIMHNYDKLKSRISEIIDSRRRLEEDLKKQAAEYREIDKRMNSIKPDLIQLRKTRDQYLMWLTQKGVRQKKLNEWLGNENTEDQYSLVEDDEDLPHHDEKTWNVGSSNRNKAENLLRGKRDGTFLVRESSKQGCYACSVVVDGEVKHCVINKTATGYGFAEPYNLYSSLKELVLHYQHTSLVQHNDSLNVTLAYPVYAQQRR
Procedure: A PI3K Alphascreen® assay (PerkinElmer, Waltham, Mass.) was used to measure the activity of a panel of four phosphoinositide 3-kinases: PI3Kα, PI3Kβ, PI3Kγ, and PI3Kδ. Enzyme reaction buffer was prepared using sterile water (Baxter, Deerfield, Ill.) and 50 mM Tris HCl pH 7, 14 mM MgCl2, 2 mM sodium cholate, and 100 mM NaCl. 2 mM DTT was added fresh the day of the experiment. The Alphascreen buffer was made using sterile water and 10 mM Tris HCl pH 7.5, 150 mM NaCl, 0.10% Tween 20, and 30 mM EDTA. 1 mM DTT was added fresh the day of the experiment. Compound source plates used for this assay were 384-well Greiner clear polypropylene plates containing test compounds at 5 mM and diluted 1:2 over 22 concentrations. Columns 23 and 24 contained only DMSO as these wells comprised the positive and negative controls, respectively. Source plates were replicated by transferring 0.5 uL per well into 384-well Optiplates (PerkinElmer, Waltham, Mass.).
Each PI3K isoform was diluted in enzyme reaction buffer to 2× working stocks. PI3Kα was diluted to 1.6 nM, PI3Kβ was diluted to 0.8 nM, PI3Kγ was diluted to 15 nM, and PI3Kδ was diluted to 1.6 nM. PI(4,5)P2 (Echelon Biosciences, Salt Lake City, Utah) was diluted to 10 μM and ATP was diluted to 20 μM. This 2× stock was used in the assays for PI3Kα and PI3Kβ. For assay of PI3Kγ and PI3Kδ, PI(4,5)P2 was diluted to 10 μM and ATP was diluted to 8 μM to prepare a similar 2× working stock. Alphascreen reaction solutions were made using beads from the anti-GST Alphascreen kit (PerkinElmer, Waltham, Mass.). Two 4× working stocks of the Alphascreen reagents were made in Alphascreen reaction buffer. In one stock, biotinylated-IP4 (Echelon Biosciences, Salt Lake City, Utah) was diluted to 40 nM and streptavadin-donor beads were diluted to 80 μg/mL. In the second stock, PIP3-binding protein (Echelon Biosciences, Salt Lake City, Utah) was diluted to 40 nM and anti-GST-acceptor beads were diluted to 80 μg/mL.
Using a 384-well Multidrop (Titertek, Huntsville, Ala.), 10 μL/well of 2× enzyme stock was added to columns 1-24 of the assay plates for each isoform. 10 μL/well of the appropriate substrate 2× stock (containing 20 μM ATP for the PI3Kα and β assays and containing 8 μM ATP for the PI3Kγ and δ assays) was then added to Columns 1-24 of all plates. Plates were then incubated at room temperature for 20 minutes. In the dark, 10 μL/well of the donor bead solution was added to columns 1-24 of the plates to quench the enzyme reaction. The plates were incubated at room temperature for 30 minutes. Still in the dark, 10 μL/well of the acceptor bead solution was added to columns 1-24 of the plates. The plates were then incubated in the dark for 1.5 hours. The plates were read on an Envision multimode Plate Reader (PerkinElmer, Waltham, Mass.) using a 680 nm excitation filter and a 520-620 nm emission filter.

With `Cc1c(-c2ccccn2)nc2cccc(F)c2c1N1CC2(CCOCC2)c2ncc(N3CCOCC3)cc21` [1′-(5-fluoro-3-methyl-2-(2-pyridinyl)-4-quinolinyl)-6′-(4-morpholinyl)-1′,2,2′,3,5,6-hexahydrospiro[pyran-4,3′-pyrrolo[3,2-b]pyridine]], the affinity corresponds to a Ki of 6.48 nM. Then `COc1cc(N2CCOCC2)cc2c1ccn2-c1c(C)c(C)nc2ccc(Cl)cc12` [6-chloro-4-(4-methoxy-6-(4-morpholinyl)-1H-indol-1-yl)-2,3-dimethylquinoline], with 3710 nM; and `Cc1c(-c2ccccn2)nc2cc(F)ccc2c1N1CC(CO)(CO)c2ccc(N3CCOCC3)cc21` [(1-(7-fluoro-3-methyl-2-(2-pyridinyl)-4-quinolinyl)-6-(4-morpholinyl)-2,3-dihydro-1H-indole-3,3-diyl)dimethanol], with 154 nM; and `Cc1nc2c(C(F)(F)F)cccc2c(N2CC(C)(C)c3ccc(N4CCOCC4)cc32)c1C` [4-(3,3-dimethyl-6-(4-morpholinyl)-2,3-dihydro-1H-indol-1-yl)-2,3-dimethyl-8-(trifluoromethyl)quinoline], with 516 nM. Regarding `Cc1c(N2CCCCC2=O)nc2cc(F)ccc2c1N1CC2(CCOCC2)c2ncc(N3CCOCC3)cc21` [1-(7-fluoro-3-methyl-4-(6′-(4-morpholinyl)-2,3,5,6-tetrahydrospiro[pyran-4,3′-pyrrolo[3,2-b]pyridin]-1′(2′H)-yl)-2-quinolinyl)-2-piperidinone], the inhibition constant (Ki) was found to be 1.62 nM.

Molecule `Cc1c(-c2ccccn2)nc2cc(F)ccc2c1N1CC2(CCOCC2)c2ncc(-c3cn[nH]c3)cc21` [1′-(7-fluoro-3-methyl-2-(2-pyridinyl)-4-quinolinyl)-6′-(1H-pyrazol-4-yl)-1′,2,2′,3,5,6-hexahydrospiro[pyran-4,3′-pyrrolo[3,2-b]pyridine]] displayed an inhibition constant (Ki) of 320 nM.

With `Cc1c(C2(c3ccccc3)CC2)nc2cc(F)cc(F)c2c1N1CC(C)(C)c2ncc(N3CCOCC3)cc21` [4-(3,3-dimethyl-6-(4-morpholinyl)-2,3-dihydro-1H-pyrrolo[3,2-b]pyridin-1-yl)-5,7-difluoro-3-methyl-2-(1-phenylcyclopropyl)quinoline], the Ki worked out at 21.8 nM. `Cc1c(-c2cc(F)cc(F)c2)nc2ncccc2c1N1CC(C)(C)c2ncc(N3CCOCC3)cc21` [2-(3,5-difluorophenyl)-4-(3,3-dimethyl-6-(4-morpholinyl)-2,3-dihydro-1H-pyrrolo[3,2-b]pyridin-1-yl)-3-methyl-1,8-naphthyridine] came in with an inhibition constant (Ki) of 3.11 nM. As for `Cc1nc2c(C)cccc2c(N2CC(C)(C)c3ccc(N4CCOCC4)cc32)c1C` [4-(3,3-dimethyl-6-(4-morpholinyl)-2,3-dihydro-1H-indol-1-yl)-2,3,8-trimethylquinoline], the affinity corresponds to a Ki of 44 nM. `COc1cc2nc(C)c(C)c(N3CCS(=O)(=O)c4ccc(N5CCOCC5)cc43)c2cc1Cl` [4-(6-chloro-7-methoxy-2,3-dimethyl-4-quinolinyl)-6-(4-morpholinyl)-3,4-dihydro-2H-1,4-benzothiazine 1,1-dioxide] displayed a Ki of 28 nM. The figure for `COc1cc2nc(C)c(C)c(N3CC(C)(C)c4ccc(N5CCOCC5)c(C)c43)c2cc1Cl` [6-chloro-7-methoxy-2,3-dimethyl-4-(3,3,7-trimethyl-6-(4-morpholinyl)-2,3-dihydro-1H-indol-1-yl)quinoline] is 3960 nM; for `CC1(C)CN(c2c3c(nc4ccc(Cl)cc24)CCC3)c2cc(N3CCOCC3)ccc21` [7-chloro-9-(3,3-dimethyl-6-(4-morpholinyl)-2,3-dihydro-1H-indol-1-yl)-2,3-dihydro-1H-cyclopenta[b]quinoline] it is 772 nM; for `COC(=O)N1CCN(c2nc3cc(F)cc(F)c3c(N3CC4(CCOCC4)c4ncc(N5CCOCC5)cc43)c2C)CC1` [methyl 4-(5,7-difluoro-3-methyl-4-(6′-(4-morpholinyl)-2,3,5,6-tetrahydrospiro[pyran-4,3′-pyrrolo[3,2-b]pyridin]-1′(2′H)-yl)-2-quinolinyl)-1-piperazinecarboxylate] it is 1.49 nM. Regarding `Cc1c(N2CCN(C(=O)OC(C)(C)C)CC2)nc2cc(F)cc(F)c2c1N1CC2(CCOCC2)c2ncc(N3CCOCC3)cc21` [tert-butyl 4-(5,7-difluoro-3-methyl-4-(6′-(4-morpholinyl)-2,3,5,6-tetrahydrospiro[pyran-4,3′-pyrrolo[3,2-b]pyridin]-1′(2′H)-yl)-2-quinolinyl)-1-piperazinecarboxylate], the inhibition constant Ki came to 12.4 nM. This Ki is about 8.3-fold higher than that of the molecule before. Then `Cc1c(-c2ccccc2)nc2ccccc2c1N1CC(C)(C)c2ccc(N3CCOCC3)cc21` [4-(3,3-dimethyl-6-(4-morpholinyl)-2,3-dihydro-1H-indol-1-yl)-3-methyl-2-phenylquinoline], with 85.4 nM. For the molecule `Cc1c(N2CCC2=O)nc2cc(F)cc(F)c2c1N1CC2(CCOCC2)c2ncc(N3CCOCC3)cc21` [1-(5,7-difluoro-3-methyl-4-(6′-(4-morpholinyl)-2,3,5,6-tetrahydrospiro[pyran-4,3′-pyrrolo[3,2-b]pyridin]-1′(2′H)-yl)-2-quinolinyl)-2-azetidinone], the inhibition constant (Ki) was determined as 2.3 nM.

Regarding `Cc1c(CCc2ccccc2)nc2cc(F)cc(F)c2c1N1CC(C)(C)c2ncc(N3CCOCC3)cc21` [4-(3,3-dimethyl-6-(4-morpholinyl)-2,3-dihydro-1H-pyrrolo[3,2-b]pyridin-1-yl)-5,7-difluoro-3-methyl-2-(2-phenylethyl)quinoline], affinity was put at a Ki of 8.12 nM. On to `Cc1nc2ccc(Cl)cc2c(-n2cc(C#N)c3ccc(-c4cn[nH]c4)cc32)c1C` [1-(6-chloro-2,3-dimethyl-4-quinolinyl)-6-(1H-pyrazol-4-yl)-1H-indole-3-carbonitrile], for which the affinity corresponds to a Ki of 2110 nM. `Cc1c(-c2ccccn2)nc2cccc(F)c2c1N1CC(C)(C)c2ncc(N3CCOCC3)cc21` [4-(3,3-dimethyl-6-(4-morpholinyl)-2,3-dihydro-1H-pyrrolo[3,2-b]pyridin-1-yl)-5-fluoro-3-methyl-2-(2-pyridinyl)quinoline] gave a Ki of 3.33 nM.

`Cc1nc2ccccc2c(N2CC3(CCOCC3)c3ccc(N4CCOCC4)cc32)c1C` [1-(2,3-dimethyl-4-quinolinyl)-6-(4-morpholinyl)-1,2,2′,3′,5′,6′-hexahydrospiro[indole-3,4′-pyran]] came in with a Ki of 450 nM. This Ki is about 140-fold higher than that of the molecule before.

With `Cc1c(-c2ccccc2F)nc2cccc(Cl)c2c1N1CC(C)(C)c2ccc(N3CCOCC3)cc21` [5-chloro-4-(3,3-dimethyl-6-(4-morpholinyl)-2,3-dihydro-1H-indol-1-yl)-2-(2-fluorophenyl)-3-methylquinoline], the Ki came to 890 nM. `Cc1c(-c2cccc(=O)[nH]2)nc2cc(F)ccc2c1N1CC(C)(C)c2ncc(N3CCOCC3)cc21` [6-(4-(3,3-dimethyl-6-(4-morpholinyl)-2,3-dihydro-1H-pyrrolo[3,2-b]pyridin-1-yl)-7-fluoro-3-methyl-2-quinolinyl)-2(1H)-pyridinone] registered a Ki of 14.7 nM. Consider `Cc1c(-c2ccccn2)nc2cc(F)ccc2c1N1CC(C)(C)c2ncc(-c3cn[nH]c3)cc21` [4-(3,3-dimethyl-6-(1H-pyrazol-4-yl)-2,3-dihydro-1H-pyrrolo[3,2-b]pyridin-1-yl)-7-fluoro-3-methyl-2-(2-pyridinyl)quinoline], for which the affinity, expressed as Ki, was 95.2 nM. The molecule `Cc1ccnc(-c2nc3ncccc3c(N3CC(C)(C)c4nc(Cl)c(N5CCOCC5)cc43)c2C)c1` [4-(5-chloro-3,3-dimethyl-6-(4-morpholinyl)-2,3-dihydro-1H-pyrrolo[3,2-b]pyridin-1-yl)-3-methyl-2-(4-methyl-2-pyridinyl)-1,8-naphthyridine] registered a Ki of 68.7 nM. The Ki values of the last two molecules are within 1.5-fold of each other.

Values taken from patent US8765940B2 (priority 2009, dated 2014).
